The text below walks through data of patent publication US12606816B2, “Inhibitory T cell receptor peptides and discovery methods” (JANUX THERAPEUTICS, INC., priority 2018, dated 2026).

The first test has as its system gp100 TCR.
Assay: not given
The note with it: read-out: ELISA | EC50 | uM.
For the substance “GGCHWEHVWGAGSFFCGGGGS[PEG4]Lys(biotin)-NH2”, the EC50 is 1.26 µM. As to “GGDICQWVRSMTECSWGGGGS[PEG4]Lys(biotin)-NH2”, the EC50 worked out at 0.17 µM. Still for that read-out and setting: for “GGFCRYVRYEFWDLCMGGGGS[PEG4]Lys(biotin)-NH2” the value was 0.54 µM; for “GGHCYDTHSFPMYVCLGGGGS[PEG4]Lys(biotin)-NH2”, 2.58 µM; for “GGICYDYMSGYDVVCMGGGGS[PEG4]Lys(biotin)-NH2”, 0.11 µM.

Consider “GGLCRAVEDMWVTSCMGGGGS[PEG4]Lys(biotin)-NH2”, for which the EC50 is 4.04 µM.

“GGYCPLSYSQYDSPCYGGGGS[PEG4]Lys(biotin)-NH2”: the EC50 is 0.1 µM.

Turning to “GGYCYYDIDLDQFLCNGGGGS[PEG4]Lys(biotin)-NH2”, the EC50 is 0.23 µM. Same read-out and setting: the result for “GGYDCNYDPSSHTCFYGGGGS[PEG4]Lys(biotin)-NH2” reads 0.12 µM.

Another test has as its system MAGE-A3 TCR / MAGE-A3 pMHC.
Assay: not given
The note with it: read-out: ELISA | IC50 | uM.
“GGHCFVSPASGEWWCVGGGGS[PEG4]Lys(biotin)- NH2”: the IC50 is more than 100 µM. With “GGVSCKDVYDEAFCWTGGGGS[PEG4]Lys(biotin)- NH2”, the IC50 turned out to be 0.6 µM. Still for that read-out and setting: for LVWGCIWDDMCSGGGGS[PEG4]Lys(biotin)-NH2 the value was more than 100 µM.

Another test has as its system HIV TCR.
Assay: not given
The note with it: read-out: ELISA | EC50 | uM.
Take “GGAFCVDTKPGLVCFEGGGGS[PEG4]Lys(biotin)- NH2”: the EC50 worked out at 0.26 µM. With “GGATCHLDNVYFLCDIGGGGS[PEG4]Lys(biotin)- NH2”, the concentration giving a half-maximal response (EC50) was found to be 0.34 µM. Take “GGFTCVDGQVYYLCDSGGGGS[PEG4]Lys(biotin)- NH2”: the EC50 was 0.69 µM. On the same count and under the same terms, for “GGGTCFHGNTYFLCEDGGGGS[PEG4]Lys(biotin)- NH2” the value was 0.29 µM. Same read-out and setting: the result for “GGIECYPGFWALDCLYGGGGS[PEG4]Lys(biotin)- NH2” reads 0.43 µM. Still for that read-out and setting: the result for “GGLTCSSQNIYYLCSDGGGGS[PEG4]Lys(biotin)- NH2” reads 0.4 µM. Consider “GGLVCNDGNIWWLCEDGGGGS[PEG4]Lys(biotin)- NH2”, for which the EC50 is 0.88 µM.

For “GGLVCNDGVVFWLCDSGGGGS[PEG4]Lys(biotin)- NH2”, the EC50 stood at 0.81 µM. On to “GGMLCNEGYWALSCFLGGGGS[PEG4]Lys(biotin)- NH2”, for which the EC50 was 0.69 µM. Take “GGQLCPEGYYALMCTDGGGGS[PEG4]Lys(biotin)- NH2”: the EC50 came to 0.15 µM. As to “GGQTCIADNVYYLCPEGGGGS[PEG4]Lys(biotin)- NH2”, the EC50 came to 0.82 µM.

As for “GGSNCYSLEPWIYCDTGGGGS[PEG4]Lys(biotin)- NH2”, the EC50 was 0.5 µM. The same measure, in the same setting: for “GGTTCLEGGVYFLCADGGGGS[PEG4]Lys(biotin)- NH2” the value was 0.74 µM. Regarding “GGVICTADGVYWLCDLGGGGS[PEG4]Lys(biotin)- NH2”, the EC50 amounted to 1.29 µM. As to “GGVTCNDGKIFYLCSDGGGGS[PEG4]Lys(biotin)- NH2”, the EC50 amounted to 0.63 µM.

As for “GGVTCSLGNVFYLCHDGGGGS[PEG4]Lys(biotin)- NH2”, the EC50 was 0.39 µM.

Another test concerns Mage-A3 sTCR. Put plainly: kdis (1/s).
Conditions: not given
An excerpt: Table printed on a drawing sheet, FIG. 4B
Head of the field: kdis (1/s)
On to VSCKDVYDEAFCW [Inhibitory peptide 1], for which the “kdis” value was determined as 0.0282 s⁻¹.

The target of another test is HIV pMHC binding to anti-HIV TCR.
Assay: not given
Particulars: read-out: ELISA | IC50 | uM.
For the substance “GGAFCVDTKPGLVCFEGGGGS[PEG4]Lys(biotin)- NH2”, the IC50 was found to be 112 µM.

The next test concerns MAGE-A3 TCR.
Assay: not given
Particulars: read-out: ELISA | EC50 | uM.
Regarding “GGCSWIFDGLRYFSKCGGGGS[PEG4]Lys(biotin)- NH2”, the EC50 was determined as 0.15 µM. On to “GGESCQSVYDSSFCYDGGGGS[PEG4]Lys(biotin)- NH2”, for which the EC50 was found to be 0.1 µM. Regarding “GGHCFVSPASGEWWCVGGGGS[PEG4]Lys(biotin)- NH2”, the EC50 came out at 0.08 µM.

“GGNACEMTYDHTFCDPGGGGS[PEG4]Lys(biotin)- NH2”: the EC50 was found to be 0.17 µM. In the case of “GGNQCWEVYDQEFCSLGGGGS[PEG4]Lys(biotin)- NH2”, the EC50 worked out at 0.05 µM.

Take “GGNSCSLVYDKAFCLFGGGGS[PEG4]Lys(biotin)- NH2”: the EC50 stood at 0.43 µM. The same measure, in the same setting: the result for “GGRICEEVYDWIFCESGGGGS[PEG4]Lys(biotin)- NH2” reads 0.31 µM.

Consider “GGRRCVDVYDNAFCLIGGGGS[PEG4]Lys(biotin)- NH2”, for which the EC50 came out at 0.25 µM. The same measure, in the same setting: for “GGSACSRIYDFAFCHTGGGGS[PEG4]Lys(biotin)- NH2” the value was 0.33 µM; for “GGSLCSLVYDQDFCESGGGGS[PEG4]Lys(biotin)- NH2”, 0.16 µM; for “GGTFCYFDHGLVNCQWGGGGS[PEG4]Lys(biotin)- NH2”, 0.5 µM. On the same count and under the same terms, the result for “GGTSCAQIYDFEFCYSGGGGS[PEG4]Lys(biotin)- NH2” reads 0.17 µM; that for “GGVSCKDVYDEAFCWTGGGGS[PEG4]Lys(biotin)- NH2”, 0.01 µM. Still for that read-out and setting: for LVWGCIWDDMCSGGGGS[PEG4]Lys(biotin)-NH2 the value was 0.1 µM; for VRTWFEKFPELVGGGGS[PEG4]Lys(biotin)-NH2, 0.67 µM.
